Columns and labels:
SD rats [1] = experiment: Acute administration of A28 at multiple doses, glucose tolerance of SD rats; type: in vivo, rat; settings: for Blood glucose level 0: before sugar
Experimental: (1) 80 SD rats were selected and starved overnight, took water freely, then randomly divided into 10 groups according to body weight and random blood glucose, 8 rats in each group. […] 1 h after oral gavage, 3 g/kg of glucose was orally administered to each group except blank control group, and the blood glucose level was monitored before the sugar administration, and at 15, 30, 60, 90 and 120 minutes after the sugar administration.
Average hypoglycemic rate %=(AUC0-120 min of solvent control group−AUC0-120 min of administration group)/(AUC0-120 min of solvent control group−AUC0-120 min of blank control group)*100%

SD rats [2] = experiment: Acute administration of A28 at multiple doses, urinary glucose of SD rats; type: in vivo, rat; settings: within 24 h
Experimental: (1) 72 normal male SD rats were selected and randomly divided into 9 groups according to body weight and blood glucose, 8 in each group. […] After oral gavage, the rats were placed in rats metabolic cages, and urine was collected after 24 h, and the urine volume was recorded, then preserved under −20° C. Rats take food and water freely during the experimental period.
(2) Index Determination: Glucose levels in urine are measured by the glucose assay kit.

db/db mice = experiment: Acute administration at multiple doses, random blood glucose in db/db mice; type: in vivo, mouse; settings: for Blood glucose level 0 h: before administration
Experimental: (1) 127 db/db mice (half male and half female) entered the animal laboratory of the institute at 7 weeks of age and were grouped at 10 weeks of age. Random blood glucose and random body weight of all db/db mice were determined at 9:00 am, and then fasted for 6 hours (free drinking). Fasting blood glucose and fasting body weight were determined, and blood was collected (10 μl EDTA+20 μl tail blood, centrifugated to collect supernatant) to determine the insulin content. […] The db/db mice were once orally administered at a dose of 10 mL/kg. Blood glucose levels were measured before administration, and at 1 h, 2 h, 3 h, 4 h, 6 h after administration, and the administration times and body weights were recorded. Mice took food and water freely during the experiment.
Average hypoglycemic rate %=(model control group−administration group)/(model control group−blank control group)*100%

With `CCc1ccc(Cc2cc3c(cc2Cl)CO[C@]32O[C@H](C)[C@@H](O)[C@H](O)[C@H]2O)s1` [Example A28, (1S,3′R,4′S,5′S,6′R)-6′-methyl-6-((5-ethylthienyl)-2-methyl)-5-chloro-3′,4′,5′,6′-tetrahydro-3H-spiro[isobenzofuran-1,2′-pyran]-3′,4′,5′-triol] the “Blood glucose level 90 min” value (SD rats [1]; SD rats OGTT, oral 3 mg/kg) was 7.4 ± 0.6 mmol/L, the “Blood glucose level 120 min” value (SD rats [1]; SD rats OGTT, oral 3 mg/kg) was 8.4 ± 1.6 mmol/L and the “Blood glucose level 0” value (SD rats [1]; SD rats OGTT, oral 3 mg/kg) was 3.7 ± 0.4 mmol/L. The AUC0-2 h (SD rats [1]; SD rats OGTT, oral 10 mg/kg) was 7.6 ± 0.9 mmol·h/L, the “Average hypoglycemic rate % (0-2 h)” value (SD rats [1]; SD rats OGTT, oral 10 mg/kg) was 122.4% and the “Blood glucose level 15 min” value (SD rats [1]; SD rats OGTT, oral 10 mg/kg) was 3.0 ± 0.4 mmol/L. The “Blood glucose level 30 min” value (SD rats [1]; SD rats OGTT, oral 10 mg/kg) was 3.4 ± 0.4 mmol/L, the “Blood glucose level 60 min” value (SD rats [1]; SD rats OGTT, oral 10 mg/kg) was 4.3 ± 1.8 mmol/L and the “Blood glucose level 90 min” value (SD rats [1]; SD rats OGTT, oral 10 mg/kg) was 4.2 ± 0.4 mmol/L. The “Blood glucose level 120 min” value (SD rats [1]; SD rats OGTT, oral 10 mg/kg) was 3.7 ± 0.9 mmol/L, the “Blood glucose level 0” value (SD rats [1]; SD rats OGTT, oral 10 mg/kg) was 3.1 ± 0.4 mmol/L and the “2 h hypoglycemic effect compared with Dapagliflozin” value (SD rats [1]; SD rats, single oral dose) was “equivalent 2 h hypoglycemic effect to positive Dapagliflozin”. It also gave a Total sugar excretion (SD rats [2]; oral 0.3 mg/kg) of 10.55 ± 10.05 mg/100 g, a Urine concentration (SD rats [2]; oral 0.3 mg/kg) of 8.70 ± 1.98 mmol/L and a Urine volume (SD rats [2]; oral 0.3 mg/kg) of 16.25 ± 1.50 mL. For the same compound, the Total sugar excretion (SD rats [2]; oral 1 mg/kg) was 149.08 ± 0.00 mg/100 g, the Urine concentration (SD rats [2]; oral 1 mg/kg) was 105.56 ± 0.00 mmol/L and the Urine volume (SD rats [2]; oral 1 mg/kg) was 19.25 ± 0.00 mL. For the same compound, the Total sugar excretion (SD rats [2]; oral 3 mg/kg) was 441.27 ± 50.75 mg/100 g, the Urine concentration (SD rats [2]; oral 3 mg/kg) was 257.69 ± 32.96 mmol/L and the Urine volume (SD rats [2]; oral 3 mg/kg) was 25.00 ± 2.06 mL. It also gave a Total sugar excretion (SD rats [2]; oral 10 mg/kg) of 1028.20 ± 83.93 mg/100 g, a Urine concentration (SD rats [2]; oral 10 mg/kg) of 359.48 ± 29.43 mmol/L and a Urine volume (SD rats [2]; oral 10 mg/kg) of 39.75 ± 1.57 mL. The urine glucose excretion (SD rats [2]; single oral 0.3, 1, 3 and 10 mg/kg) was “significantly promoted in a dose-dependent manner”, the “effective dose, reduction of blood glucose levels” value (db/db mice; single administration, within 6 h) was 3 mg/kg and the AUC0-6 h (db/db mice; single oral 0.3 mg/kg) was 103.7 ± 7.7 mmol·h/L. The “Blood glucose level 1 h” value (db/db mice; single oral 0.3 mg/kg) was 19.4 ± 1.2 mmol/L, the “Blood glucose level 2 h” value (db/db mice; single oral 0.3 mg/kg) was 18.0 ± 0.9 mmol/L and the “Blood glucose level 3 h” value (db/db mice; single oral 0.3 mg/kg) was 17.2 ± 1.5 mmol/L. For the same compound, the “Blood glucose level 4 h” value (db/db mice; single oral 0.3 mg/kg) was 16.5 ± 1.5 mmol/L, the “Blood glucose level 6 h” value (db/db mice; single oral 0.3 mg/kg) was 15.4 ± 1.7 mmol/L and the “Blood glucose level 0 h” value (db/db mice; single oral 0.3 mg/kg) was 17.9 ± 1.5 mmol/L. The AUC0-6 h (db/db mice; single oral 1 mg/kg) was 87.3 ± 4.8 mmol·h/L, the “Blood glucose level 1 h” value (db/db mice; single oral 1 mg/kg) was 15.9 ± 0.7 mmol/L and the “Blood glucose level 2 h” value (db/db mice; single oral 1 mg/kg) was 13.7 ± 0.6 mmol/L. The “Blood glucose level 3 h” value (db/db mice; single oral 1 mg/kg) was 14.6 ± 0.9 mmol/L, the “Blood glucose level 4 h” value (db/db mice; single oral 1 mg/kg) was 14.9 ± 1.1 mmol/L and the “Blood glucose level 6 h” value (db/db mice; single oral 1 mg/kg) was 12.3 ± 0.9 mmol/L. For the same compound, the “Blood glucose level 0 h” value (db/db mice; single oral 1 mg/kg) was 16.8 ± 1.2 mmol/L, the AUC0-6 h (db/db mice; single oral 3 mg/kg) was 62.7 ± 3.3 mmol·h/L and the “Blood glucose level 1 h” value (db/db mice; single oral 3 mg/kg) was 11.2 ± 1.2 mmol/L. The “Blood glucose level 2 h” value (db/db mice; single oral 3 mg/kg) was 9.1 ± 0.5 mmol/L, the “Blood glucose level 3 h” value (db/db mice; single oral 3 mg/kg) was 10.2 ± 0.7 mmol/L and the “Blood glucose level 4 h” value (db/db mice; single oral 3 mg/kg) was 8.7 ± 0.6 mmol/L. For the same compound, the “Blood glucose level 6 h” value (db/db mice; single oral 3 mg/kg) was 9.7 ± 0.8 mmol/L, the “Blood glucose level 0 h” value (db/db mice; single oral 3 mg/kg) was 18.7 ± 1.2 mmol/L and the AUC0-6 h (db/db mice; single oral 10 mg/kg) was 47.2 ± 1.7 mmol·h/L. The “Blood glucose level 1 h” value (db/db mice; single oral 10 mg/kg) was 8.2 ± 0.4 mmol/L, the “Blood glucose level 2 h” value (db/db mice; single oral 10 mg/kg) was 6.0 ± 0.6 mmol/L and the “Blood glucose level 3 h” value (db/db mice; single oral 10 mg/kg) was 7.1 ± 0.5 mmol/L. For the same compound, the “Blood glucose level 4 h” value (db/db mice; single oral 10 mg/kg) was 7.2 ± 0.6 mmol/L, the “Blood glucose level 6 h” value (db/db mice; single oral 10 mg/kg) was 6.1 ± 0.4 mmol/L and the “Blood glucose level 0 h” value (db/db mice; single oral 10 mg/kg) was 18.3 ± 1.7 mmol/L.
